Literature values in patent publication US20140023718A1, “PROSTAGLANDIN-CONTAINING FAT EMULSION” (FUJIFILM Corporation, priority 2011, published 2014).

Settings: 25° C. water

For `CCCC(=O)O` [butyric acid], the pKa is listed as 4.63.

In the case of `O=C(O)CC(O)C(=O)O` (centres unmarked) [malic acid], the pKa1 is listed as 3.40 and the pKa2 is listed as 5.13.

For `O=C(O)CCC(=O)O` [succinic acid], the pKa1 is given as 4.00 and the pKa2 is given as 5.24.
